Data reported in publication PMC3973950, “Synthesis of 5-arylidine amino-1,3,4-thiadiazol-2-[(N-substituted benzyol)]sulphonamides endowed with potent antioxidants and anticancer activity induces growth inhibition in HEK293, BT474 and NCI-H226 cells” (Medicinal Chemistry Research, 2013).

Assays:
[1] = tested on: HEK 293, M468 and NCI-H226; assay: In vitro cytotoxicity by MTT assay, summary over all cell lines; assay type: cell-based; details: on all cell lines
Protocol: The cancer cell line cultures of HEK 293 ([…]), BT474 (breast cancer cell line) and NCI-H226 (lung cancer) were obtained from Pasteur Institute of India, Coonoor, India, and were cultured in RPMI-1640 and 10 % heat-[…] New born calf serum with antibiotics [penicillin ([…]), streptomycin (100 μg/mL) and amphotericin B (25 μg/mL)]. The cells were maintained at 37 °C in a humidified atmosphere with 5 % CO2 and were subcultured twice a week.
The monolayer cell culture (100 μL) was trypsinized, and the cell count was adjusted to […] using medium containing 10 % new born calf serum. To each well of the 96-well microtitre plate, the diluted cell suspension (approximately 10,000 cells) (0.1 mL) was added and kept for 24 h in incubator at 37 °C in 5 % CO2 atmosphere for cell monolayer formation. After 24 h, when a partial monolayer was formed at the bottom of the well, the supernatant was flicked off, the monolayer was washed once, and different drugs, i.e. synthesized compounds (100 μL), were added to the cells in microtitre plates. The plates were then incubated at 37 °C for 3 days in 5 % CO2 atmosphere, and microscopic examination was carried out and observations recorded every 24 h. After 72 h, the sample solution in the wells was flicked off; MTT dye ([…]) was added to each well; plates were gently shaken and incubated for 4 h at 37 °C in 5 % CO2 incubator. The supernatant was removed and propanol (50 μL) was added; the plates were gently shaken to solubilize the formed formazan. The absorbance was measured using a microplate reader at a wavelength of 490 nm (Edmondson et al., [1988]; Prasad et al., [2005]; Chiruvella et al., [2008]; Chang et al., [2007]).

[2] = tested on: BT474 (breast cancer cell line); assay: In vitro cytotoxicity by MTT assay, BT474; assay type: cell-based; details: Homo sapiens, 72 h, read-out: % cytotoxicity (100 − % cell survival) of BT474 cell line; for cytotoxicity at 0.005 µM: BT-474, 0.005 μM; for cytotoxicity at 0.015 µM: BT-474, 0.015 μM; for cytotoxicity at 0.045 µM: BT-474, 0.045 μM; for cytotoxicity at 0.13 µM: BT-474, 0.13 μM; for cytotoxicity at 0.41 µM: BT-474, 0.41 μM; for cytotoxicity at 1.23 µM: BT-474, 1.23 μM; for cytotoxicity at 3.7 µM: BT-474, 3.7 μM; for cytotoxicity at 11.11 µM: BT-474, 11.11 μM; for cytotoxicity at 33.33 µM: BT-474, 33.33 μM; for cytotoxicity at 100 µM: BT-474, 100 μM
How it was run: (§1)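 Cells grown in RPMI-1640 with 10 % […] newborn calf serum were seeded at about 10,000 cells per well and left 24 h to form a partial monolayer. Compounds were then added for 72 h at 37 °C, 5 % CO2, followed by MTT for 4 h, formazan solubilized in propanol and absorbance read at 490 nm.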

[3] = In vitro cytotoxicity by MTT assay, HEK 293; assay type: cell-based, human; details: human, HEK 293 cells; for cytotoxicity at 72 h, 0.005 µM / cytotoxicity at 72 h, 0.015 µM / cytotoxicity at 72 h, 0.045 µM / cytotoxicity at 72 h, 0.13 µM / cytotoxicity at 72 h, 0.41 µM / cytotoxicity at 72 h, 1.23 µM / cytotoxicity at 72 h, 3.7 µM / cytotoxicity at 72 h, 11.11 µM / cytotoxicity at 72 h, 33.33 µM / cytotoxicity at 72 h, 100 µM: read-out: % cytotoxicity (100 − % cell survival) of HEK 293 cell line
How it was run: as §1

[4] = tested on: NCI-H226 (lung cancer cell line); assay: In vitro cytotoxicity by MTT assay, NCI-H226; assay type: cell-based; details: Homo sapiens, 72 h; for cytotoxicity at 0.005 µM: NCI-H226, 0.005 μM; for cytotoxicity at 0.005 µM / cytotoxicity at 0.045 µM / cytotoxicity at 0.13 µM / cytotoxicity at 0.41 µM / cytotoxicity at 1.23 µM / cytotoxicity at 3.7 µM / cytotoxicity at 11.11 µM / cytotoxicity at 33.33 µM / cytotoxicity at 100 µM: read-out: % Cytotoxicity (100 − % cell survival) of NCI-H226 cell line; for cytotoxicity at 0.045 µM: NCI-H226, 0.045 μM; for cytotoxicity at 0.13 µM: NCI-H226, 0.13 μM; for cytotoxicity at 0.41 µM: NCI-H226, 0.41 μM; for cytotoxicity at 1.23 µM: NCI-H226, 1.23 μM; for cytotoxicity at 3.7 µM: NCI-H226, 3.7 μM; for cytotoxicity at 11.11 µM: NCI-H226, 11.11 μM; for cytotoxicity at 33.33 µM: NCI-H226, 33.33 μM; for cytotoxicity at 100 µM: NCI-H226, 100 μM
How it was run: as §1

[5] = In vitro cytotoxicity by MTT assay, NCI-H226; assay type: cell-based; details: human, NCI-H226 lung cancer cells, 0.015 μM, read-out: % Cytotoxicity (100 − % cell survival) of NCI-H226 cell line
How it was run: as §1

Structure (SMILES)	cytotoxic activity compared with all synthesized compounds [1]	cytotoxicity at 0.005 µM [2] [%]	cytotoxicity at 0.015 µM [2] [%]	cytotoxicity at 0.045 µM [2] [%]	cytotoxicity at 0.13 µM [2] [%]	cytotoxicity at 0.41 µM [2] [%]	cytotoxicity at 1.23 µM [2] [%]	cytotoxicity at 3.7 µM [2] [%]	cytotoxicity at 11.11 µM [2] [%]	cytotoxicity at 33.33 µM [2] [%]	cytotoxicity at 100 µM [2] [%]	cytotoxicity at 72 h, 0.005 µM [3] [%]	cytotoxicity at 72 h, 0.015 µM [3] [%]	cytotoxicity at 72 h, 0.045 µM [3] [%]	cytotoxicity at 72 h, 0.13 µM [3] [%]	cytotoxicity at 72 h, 0.41 µM [3] [%]	cytotoxicity at 72 h, 1.23 µM [3] [%]	cytotoxicity at 72 h, 3.7 µM [3] [%]	cytotoxicity at 72 h, 11.11 µM [3] [%]	cytotoxicity at 72 h, 33.33 µM [3] [%]	further results
CC(=O)Nc1ccc(S(=O)(=O)Nc2nnc(S(=O)(=O)NC(=O)c3ccccc3N)s2)cc1 [Compound 6b]	moderate activity	24.3	25.1	25.8	26.2	27.1	28.1	28.7	29.3	30.3	32	35.6	36.2	37.9	39.9	42.6	43.1	44	45.3	46.8	cytotoxicity at 72 h, 100 µM [3]: 48.2%; cytotoxicity at 0.005 µM [4]: 36.3%; cytotoxicity at 0.045 µM [4]: 38.4%; cytotoxicity at 0.13 µM [4]: 39.1%; cytotoxicity at 0.41 µM [4]: 42%; cytotoxicity at 1.23 µM [4]: 42.7%; cytotoxicity at 3.7 µM [4]: 43.4%; cytotoxicity at 11.11 µM [4]: 45.3%; cytotoxicity at 33.33 µM [4]: 47.1%; cytotoxicity at 100 µM [4]: 49.1%; cytotoxicity at 72 h, 0.015 µM [5]: 37.3%
CC(=O)Nc1ccc(S(=O)(=O)Nc2nnc(S(=O)(=O)NC(=O)c3ccc([N+](=O)[O-])cc3)s2)cc1 [Compound 6e]	moderate activity	27.1	28	28.1	28.7	29.4	30.1	31.1	32.5	34.8	37.3	39.1	42	42.7	43.4	45.3	47.1	49.1	49.9	51.2	cytotoxicity at 72 h, 100 µM [3]: 55%; cytotoxicity at 0.005 µM [4]: 38.8%; cytotoxicity at 0.045 µM [4]: 42.4%; cytotoxicity at 0.13 µM [4]: 45.4%; cytotoxicity at 0.41 µM [4]: 47.6%; cytotoxicity at 1.23 µM [4]: 48.6%; cytotoxicity at 3.7 µM [4]: 49.2%; cytotoxicity at 11.11 µM [4]: 50.8%; cytotoxicity at 33.33 µM [4]: 51.1%; cytotoxicity at 100 µM [4]: 54.5%; cytotoxicity at 72 h, 0.015 µM [5]: 41.2%
CC(=O)Nc1ccc(S(=O)(=O)Nc2nnc(S(=O)(=O)NC(=O)c3cccc([N+](=O)[O-])c3)s2)cc1 [Compound 6f]	more potent	29.1	30.1	32.1	33.4	35.8	37.2	40.6	42.2	45.3	50.8	39.3	42.2	45.4	47.2	49.1	51.2	54.2	58.6	59.3	cytotoxicity at 72 h, 100 µM [3]: 62.4%; CC50 (50% cytotoxic concentration) at 72 h ([3]; HEK 293, concentration at which 50 % of the cells are dead, read-out: CTCC50 (cytotoxicity concentration)): 1120 nM; cytotoxicity at 0.005 µM [4]: 41.3%; cytotoxicity at 0.045 µM [4]: 46.5%; cytotoxicity at 0.13 µM [4]: 48.3%; cytotoxicity at 0.41 µM [4]: 51.3%; cytotoxicity at 1.23 µM [4]: 54.6%; cytotoxicity at 3.7 µM [4]: 55.2%; cytotoxicity at 11.11 µM [4]: 57.1%; cytotoxicity at 33.33 µM [4]: 59.6%; cytotoxicity at 100 µM [4]: 66%; cytotoxicity at 72 h, 0.015 µM [5]: 44.9%
Nc1ccc(S(=O)(=O)Nc2nnc(S(=O)(=O)NC(=O)c3cccc([N+](=O)[O-])c3)s2)cc1 [Compound 7f]	more potent	42.4	45.8	47.2	50.1	52.2	54.2	56.7	58.6	60.3	64.1	33.2	35.1	36	37	37.5	38.7	39.5	40.6	41.2	cytotoxicity at 72 h, 100 µM [3]: 43.8%; cytotoxicity at 0.005 µM [4]: 38.8%; cytotoxicity at 0.045 µM [4]: 40.1%; cytotoxicity at 0.13 µM [4]: 42.6%; cytotoxicity at 0.41 µM [4]: 46.1%; cytotoxicity at 1.23 µM [4]: 52.1%; cytotoxicity at 3.7 µM [4]: 56.4%; cytotoxicity at 11.11 µM [4]: 60.7%; cytotoxicity at 33.33 µM [4]: 65.8%; cytotoxicity at 100 µM [4]: 68%; CC50 ([4]; NCI-H226, concentration at which 50 % of the cells are dead, read-out: CTC50 (cytotoxicity concentration)): 1780 nM; cytotoxicity at 72 h, 0.015 µM [5]: 39.3%
